# Source: patent US20210341482A1, “CANCER BIOMARKERS” (NOTTINGHAM UNIVERSITY HOSPITALS NHS TRUST, priority 2018, published 2021)
# What was measured:
# SPAG5 mRNA = SPAG5 mRNA expression change and clinical response during preoperative endocrine therapy (letrozole); format: in vivo, human
# Text: B) Breast Cancer—Assessment of the Clinical Dynamic Response after Receiving Preoperative Endocrine Therapy (Aromatase Inhibitor) (i.e. Example 38)
# The association between SPAG5 mRNA expression and clinical response after receiving preoperative therapy has been analysed in a total of 101 patients from a consecutive series of 255 postmenopausal women who presented to Western General Hospital in Edinburgh with large primary histologically confirmed estrogen receptor (ER)-rich (Allred scores 6 to 8) invasive breast cancer and who were recruited between 2003 and 2011 fulfilled the requirements to be included in this. All patients gave informed consent and the study was approved by the local regional ethics committee (2001/8/80 and 2001/8/81). Patients were treated with letrozole (Femara, 2.5 mg; Novartis Pharma AG, Basel, Switzerland) daily for at least 3 months. The clinical response was assessed by three-dimensional ultrasound measurements using dynamic (serial) changes in tumor volumes. Tumours with <50% reduction in volume were classified as non-responders. SPAG5 mRNA expression data were retrieved from the publically available gene expression microarray datasets at the National Center for Biotechnology Information Gene Expression Omnibus under access numbers (GSE59515, GSE55374, and GSE20181).
# For “GSE59515” and “GSE55374” cases, RNA was extracted, labelled, and hybridized to HumanHT-12 v4 Illumina BeadChips (GPL10558) according to the standard protocol for NuGEN amplified samples. For GSE20181 cases, samples were processed on Affymetrix U133A gene chip (GPL96). There were no significant differences in clinical or pathologic features of patients or tumours from the three datasets. Illumina and Affymetrix data were independently normalized (quantile using the lumi Bioconductor package2l and the log scale robust multi-array analysis expression measure was implemented with the affy packages) and mapped to Ensembl gene identifiers using re-annotation and mapping for oligonucleotide array technologies and custom chip definition file, respectively, before detection filtering and batch correction with cross-platform normalization. Biopsies were taken from the same subjects at three time-points: pre-treatment, after 10-14 days Letrozol (2.5 mg/day, oral), and after 90 days Letrozol (2.5 mg/day, oral).
# [1] = tested on: ER+ early stage breast cancer; experiment: Distant relapse risk after adjuvant systemic therapy, multicentre adjuvant therapy cohort stratified by SPAG5 mRNA; format: in vivo, human
# Text: A) Breast Cancer—Assessment Death and Distant Relapse Risks after Surgery and Receiving Adjuvant Systemic Therapy if Eligible in Early Stage Breast Cancer (i.e. Examples 26 to 37, 45, 49, 50, 53, 54 and 57)
# The inventors evaluated the prognostic utility of SPAG5-mRNA expression in a large combined breast cancer (BC) cohort which was sourced from 15 publically-available, global datasets (n=3538) using the following access numbers.
# All the databases had been downloaded and processed. The gene expression data were converted to a common scale (median equal to 0 and standard deviation equal to 1) in order to merge all of the studies data and create combined cohorts. Each sample in the data was standardised to a mean of 0 and standard deviation of 1. Then the data was median centred for each gene whereby median of each gene is 0.
# SPAG5 gene expression data of each database were converted to a common scale (median equal to 0 and standard deviation equal to 1) in order to merge all of the studies data that used the same platform and create combined cohorts. To convert to a common scale each sample in the data was standardised to a mean of 0 and standard deviation of 1. Then the data was median centred for each gene whereby median of each gene is 0. Databases using same platform have been merged and the median expression was calculated. The median expression of SPAG5 transcript for each platform has been calculated and values equal to or higher than the median coded as +1 (overexpression). Values of less than the median have been coded 0 or low SPAG5.
Structure (SMILES),"cases with SPAG5 mRNA significantly downregulated vs pre-treatment biopsy (SPAG5 mRNA; ER+ tumours, after 2 weeks) [%]","change of SPAG5 mRNA expression vs biopsy after 2 weeks (SPAG5 mRNA; ER+ tumours, after 12 weeks)","change of SPAG5 mRNA expression vs pre-treatment biopsy (SPAG5 mRNA; non-responding tumours, after 2 or 12 weeks)","responding tumours with significant down-regulation of SPAG5 mRNA (SPAG5 mRNA; tumour volume reduced by 50%, after 2 weeks) [%]","distant relapse risk ([1]; ER+ LN+ early stage BC, SPAG5+ mRNA overexpression) [%]","distant relapse risk ([1]; ER+ LN+ early stage BC, low SPAG5 mRNA) [%]","distant relapse risk ([1]; ER+ LN- early stage BC, SPAG5+ mRNA overexpression) [%]","distant relapse risk ([1]; ER+ LN- early stage BC, low SPAG5 mRNA) [%]"
"N#Cc1ccc(C(c2ccc(C#N)cc2)n2cncn2)cc1 [pre-operative endocrine therapy, letrozole]",72,significant further reduction,no significant change,76,–,–,–,–
CC/C(=C(\c1ccccc1)c1ccc(OCCN(C)C)cc1)c1ccccc1 [Tamoxifen],–,–,–,–,46,22,33,13
